Values quoted from earlier work, collected in US10064856B2, “Pharmaceutical compositions” (LOCL PHARMA, INC., priority 2008, dated 2018).

Conditions: more than about 0.6 to 2.0 gm, typically more than about 0.6 gm

For `O=S(=O)([O-])[O-].[Zn+2]` [Zinc sulfate, zinc sulfate], the “amount ingested that can induce emesis” value is listed as “more than 0.6 gm”.
